Test results: PMC5803145, “Study on the Structural Effect of Maltoligosaccharides on Cytochrome c Complexes Stabilities by Native Mass Spectrometry” (Natural Products and Bioprospecting, 2018)

These molecules were tested against T1, Cytochrome c (Cyt c) from equine / horse heart (Equus caballus, UniProt P00004) (assay: native ESI-MS, deconvoluted peak ratios). Details: aqueous solution, 0.5 uM Cyt c, 3-7 uM ligand, room temperature, 1 h; stepwise constant of the 1:1 complex.
T1 construct: gene CYCS; mature heme-containing protein
Assay type: binding
From the text: native ESI-MS, deconvoluted peak ratios on Cytochrome c (Cyt c) from equine / horse heart

T1 sequence (P00004 2-105): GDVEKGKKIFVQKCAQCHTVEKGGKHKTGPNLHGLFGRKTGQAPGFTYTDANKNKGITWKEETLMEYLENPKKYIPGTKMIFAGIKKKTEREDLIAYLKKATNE

Row | Compound | Ka,1 (10^4 L mol^-1)
1 | OC[C@H]1O[C@H](O[C@H]2[C@H](O)[C@@H](O)[C@@H](O[C@H]3[C@H](O)[C@@H](O)[C@@H](O[C@H]4[C@H](O)[C@@H](O)[C@@H](O[C@H]5[C@H](O)[C@@H](O)[C@@H](O[C@H]6[C@H](O)[C@@H](O)C(O)O[C@@H]6CO)O[C@@H]5CO)O[C@@H]4CO)O[C@@H]3CO)O[C@@H]2CO)[C@H](O)[C@@H](O)[C@@H]1O (stereo partly drawn) [Mal VI, maltohexaose] | 2.438 x 10^4 (RSD 2.5%)
2 | OC[C@H]1O[C@H](O[C@H]2[C@H](O)[C@@H](O)[C@@H](O[C@H]3[C@H](O)[C@@H](O)C(O)O[C@@H]3CO)O[C@@H]2CO)[C@H](O)[C@@H](O)[C@@H]1O (stereo partly drawn) [Mal III, maltotriose] | 3.842 x 10^4 (RSD 2.5%)
3 | OC[C@H]1O[C@H](O[C@H]2[C@H](O)[C@@H](O)C(O)O[C@@H]2CO)[C@H](O)[C@@H](O)[C@@H]1O (stereo partly drawn) [Mal II, maltose] | 3.227 x 10^4 (RSD 2.9%)
4 | OC[C@H]1O[C@H](O[C@H]2[C@H](O)[C@@H](O)[C@@H](O[C@H]3[C@H](O)[C@@H](O)[C@@H](O[C@H]4[C@H](O)[C@@H](O)[C@@H](O[C@H]5[C@H](O)[C@@H](O)C(O)O[C@@H]5CO)O[C@@H]4CO)O[C@@H]3CO)O[C@@H]2CO)[C@H](O)[C@@H](O)[C@@H]1O (stereo partly drawn) [Mal V, maltopentaose] | 2.654 x 10^4 (RSD 0.80%)
5 | OC[C@H]1O[C@H](O[C@H]2[C@H](O)[C@@H](O)[C@@H](O[C@H]3[C@H](O)[C@@H](O)[C@@H](O[C@H]4[C@H](O)[C@@H](O)[C@@H](O[C@H]5[C@H](O)[C@@H](O)[C@@H](O[C@H]6[C@H](O)[C@@H](O)[C@@H](O[C@H]7[C@H](O)[C@@H](O)C(O)O[C@@H]7CO)O[C@@H]6CO)O[C@@H]5CO)O[C@@H]4CO)O[C@@H]3CO)O[C@@H]2CO)[C@H](O)[C@@H](O)[C@@H]1O (stereo partly drawn) [Mal VII, maltoheptaose] | 2.205 x 10^4 (RSD 1.6%)
6 | OC[C@H]1O[C@H](O[C@H]2[C@H](O)[C@@H](O)[C@@H](O[C@H]3[C@H](O)[C@@H](O)[C@@H](O[C@H]4[C@H](O)[C@@H](O)C(O)O[C@@H]4CO)O[C@@H]3CO)O[C@@H]2CO)[C@H](O)[C@@H](O)[C@@H]1O (stereo partly drawn) [Mal IV, maltotetraose] | 3.279 x 10^4 (RSD 5.6%)
